Results on 8 compounds are retold here after ChEMBL document CHEMBL1201862, “PubChem BioAssay data set” (2004).

Common to all, as to test: NCI tumour cell line growth inhibition, 48 h
The test system of assay [1] is HCT-116.
The subject of assay [2] is IGROV-1.
Assay [3] deals with OVCAR-5.
Assay [4] concerns NCI-H460.
In assay [5] the test system is ACHN.
Assay [6] has as its system OVCAR-3.
Assay [7] relates to OVCAR-8.
Assay [8] deals with SNB-75.
The test system of assay [9] is CAKI-1.
The subject of assay [10] is UACC-257.
The subject of assay [11] is SW-620.
Assay [12] relates to SK-MEL-2.
Assay [13] relates to NCI-H522.
Assay [14] concerns U-251.
For assay [15], the system named is 786-0.
For assay [16], the system named is NCI-H23.
Assay [17] concerns MOLT-4.
Assay [18] relates to Malme-3M.

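Values below derive from 48-hour exposures of cells grown in 96-well plates, with endpoints linearly interpolated between the two concentrations bracketing the appropriate inhibition level. At the GI50, growth is halved.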 The source made the active and inactive calls. No stated cut-off is given here; in the data, active = GI50 up to about 1.1 µM and inactive = higher.

Consider `O=C1c2ccc(O)c(O)c2C(=O)c2c(O)ccc(O)c21` [QUINALIZARIN], for which the GI50 was 20.6 µM (inactive) in assay [1]; 38.4 µM (inactive) in assay [2]; 28.4 µM (inactive) in assay [3]; 21.2 µM (inactive) in assay [4]; 23 µM (inactive) in [5]; 20.3 µM (inactive) in assay [6]. For the same compound, the GI50 in assay [7] is 28.1 µM (inactive); in [8], > 10 µM (inactive); in assay [9] it was 6.05 µM (inactive); in assay [10], 20.5 µM (inactive); in assay [11], 28.2 µM (inactive); in assay [12], 25.7 µM (inactive). The GI50 was 1.45 µM (inactive) in [13]; 34.2 µM (inactive) in assay [14]; 26.3 µM (inactive) in assay [15]; 31.6 µM (inactive) in [16]; 23.1 µM (inactive) in assay [17].

For the compound `CC(c1ccccc1)C(O)S(=O)(=O)O` (centres undefined), the GI50 is > 100 µM (inactive) in assay [1]; > 100 µM (inactive) in assay [2]; > 100 µM (inactive) in assay [3]; 88.3 µM (inactive) in [4]; > 100 µM (inactive) in assay [5]; > 100 µM (inactive) in [6]. For the same compound, the GI50 in assay [7] is > 100 µM (inactive); in assay [8], 43.7 µM (inactive); in [10], > 100 µM (inactive); in assay [11], > 100 µM (inactive); in [12], > 100 µM (inactive); in [13] it was > 100 µM (inactive). Moreover, the GI50 in assay [14], in assay [15], in assay [18], in assay [16] and in [17] was > 100 µM (inactive) in each case.

Turning to `CCOC(=O)/C(C#N)=C\Sc1ccccc1`, the GI50 is 16.8 µM (inactive) in assay [1]; 10.2 µM (inactive) in assay [2]; 24.7 µM (inactive) in assay [3]; 26.4 µM (inactive) in assay [4]; 17.1 µM (inactive) in [5]; 17.4 µM (inactive) in assay [6]. In addition, the GI50 in assay [7] is 13.7 µM (inactive); in assay [8], 18.8 µM (inactive); in assay [9] it was 22.3 µM (inactive); in [10], 24.7 µM (inactive); in assay [11] it was 25.9 µM (inactive); in assay [12], 25 µM (inactive). Also, the GI50 was 3.21 µM (inactive) in assay [13]; 11.3 µM (inactive) in assay [14]; 15.3 µM (inactive) in [15]; 28.3 µM (inactive) in assay [16]; 5.05 µM (inactive) in [17].

For `c1ccc(NCn2cnc3ccccc32)cc1`, the GI50 in assay [1] is 74.1 µM (inactive); in assay [2], > 100 µM (inactive); in assay [3], > 100 µM (inactive); in [4], > 100 µM (inactive); in [5], 68.4 µM (inactive); in [6] it was > 100 µM (inactive). Also, the GI50 in assay [7] is > 100 µM (inactive); in assay [8], 56.9 µM (inactive); in assay [10] it was > 100 µM (inactive); in [11], 35.6 µM (inactive); in [12], > 100 µM (inactive); in [13], > 100 µM (inactive). In addition, the GI50 in [14], in assay [15], in [18], in [16] and in [17] was > 100 µM (inactive) in each case.

On to `COC(=O)C1=C(C(=O)OC)C23C=CC=CC24C(C(=O)OC)=C(C(=O)OC)C4C1C3` (centres undefined), for which the GI50 in assay [1] was 77.1 µM (inactive); in assay [2], > 100 µM (inactive); in [3], > 100 µM (inactive); in assay [4] it was > 100 µM (inactive); in assay [5], > 100 µM (inactive); in assay [6], > 100 µM (inactive). Moreover, the GI50 was > 100 µM (inactive) in assay [7]; 0.743 µM (active) in assay [8]; 50.2 µM (inactive) in assay [10]; > 100 µM (inactive) in [11]; > 100 µM (inactive) in assay [12]; 32.7 µM (inactive) in assay [13]. Moreover, the GI50 in assay [14], in assay [15], in [18], in [16] and in assay [17] was > 100 µM (inactive) in each case.

As for `COC(=O)C(=O)C(C(=O)C(=O)Nc1ccc(F)cc1)c1nc2ccc([N+](=O)[O-])cc2nc1O` (centres undefined), the GI50 in assay [1], in assay [2], in [3], in [4], in assay [6] and in assay [7] was > 100 µM (inactive) throughout. Moreover, the GI50 in assay [8], in [9], in assay [10], in [11], in [13] and in [14] was > 100 µM (inactive) each time. In addition, the GI50 in assay [15], in assay [18] and in [16] was > 100 µM (inactive) throughout.

For `COc1cc(/C=C2\[C@H]3c4c(c(OC)c(C)c(OC)c4OC)C[C@@H](C(=O)N2Cc2ccccc2)N3C(=O)OC(C)C)c(OC)c(C)c1OC`, the GI50 in [1] was 58.7 µM (inactive); in assay [2], > 100 µM (inactive); in assay [3] it was > 100 µM (inactive); in assay [4], 5.31 µM (inactive); in assay [5], > 100 µM (inactive); in [6], 67.3 µM (inactive). Also, the GI50 was > 100 µM (inactive) in assay [7]; > 100 µM (inactive) in [8]; 34 µM (inactive) in assay [10]; 54 µM (inactive) in assay [11]; > 100 µM (inactive) in [12]; 27.5 µM (inactive) in [13]. For the same compound, the GI50 was 53.1 µM (inactive) in assay [14]; > 100 µM (inactive) in assay [15]; 60.1 µM (inactive) in [18]; 78 µM (inactive) in [16]; 42.9 µM (inactive) in assay [17].

With `NC(=O)C12C3C4C1C1C2C3C41C(N)=O` (centres undefined), the GI50 in assay [1], in assay [2], in [3], in assay [4], in assay [5] and in [6] was > 100 µM (inactive) in each case. Besides, the GI50 in assay [7], in assay [8], in [9], in assay [10], in assay [11] and in [12] was > 100 µM (inactive) each time. The GI50 in assay [13], in [14], in [15], in assay [16] and in [17] was > 100 µM (inactive) throughout.
